Assay [1] can be described thus: HepG2 cell cytotoxicity, dose response, cytotoxicity control for Shn3 inhibitor project, CellTiter-Glo, cherry-picked (AID 624134). It counts as functional, cell-based.
Assay [2] can be described thus: cytotoxicity toward DRD oncogenic fibroblasts, dose response, cell-based, non-viral oncogenic, luminescence (AID 1934). The format is functional. Conditions: Homo sapiens.
Assay [3] in a line: cytotoxicity toward NIH3T3 fibroblasts, dose response, counter-screen, cell-based, ATP luminescence, mouse fibroblasts (AID 2010).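 Also: cells exposed to compound for about 90 hours before reading.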 It counts as functional. Background: Counterscreens check selectivity or assay interference.
Assay [4] deals with INS1. Nature of the assay: beta cell apoptosis inhibitors, cytokine rescue, dose response, luminescence, retest (AID 449756).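 Also: cell death triggered by IL-1 beta plus TNF-alpha plus IFN-gamma mixture; protective hits raise ATP signal compared with cytokine alone wells.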 It counts as functional, cell-based. Conditions: Rattus norvegicus.
The test system of assay [5] is A-375. Nature of the assay: A375 melanoma cell viability reduction, dose response, counter-screen for MITF modulator project, cherry-pick samples, set 2 (AID 540335). The format is functional, cell-based. Conditions: Homo sapiens.
A short description of assay [6]: inhibitors of intracellular T. cruzi replication, confirmation, NIH3T3 host cells, beta-gal luminescence (AID 2044).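 Also: intracellular parasites grown in NIH/3T3 mouse fibroblasts as host cells; luminescent beta-galactosidase reporter signal from transgenic T. cruzi replicating inside host cells; inhibitors lower the luminescence signal.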 It counts as functional, cell-based.
The nature of assay [7]: Shn3 3'UTR reporter inhibitors, dose response, cell-based, Clone20 osteoblasts, firefly luciferase, cherry-picked (AID 624132).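 Also: firefly luciferase luminescence from reporter carrying the Shn3 3'UTR in osteoblasts.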 The format is functional.
Assay [8] can be described thus: Luminescence Cell-Based Dose Response HTS to Identify Inhibitors of 5'UTR Stem-Loop Driven Prion Protein mRNA Translation in H4 Neuroglioblastoma Cells. [Related pubchem assays: 1827 (Project Summary), 1813 (Primary HTS)]. It counts as functional.
Assay [9] concerns the target G-protein coupled receptor 55 (Homo sapiens, UniProt Q9Y2T6). Nature of the assay: GPR55 agonists via beta-arrestin recruitment, primary screen, imaging, U2OS cells, beta-arrestin-GFP redistribution (AID 1961). It counts as functional. (In general: Activated receptors often draw arrestin, which recruitment assays turn into a signal.)
The target of assay [10] is Sphingosine 1-phosphate receptor 1 (Homo sapiens, UniProt P21453). It counts as functional.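 Also: Tango beta-arrestin reporter U2OS cells stimulated with S1P near its EC80; inhibitor potency meaning antagonism of receptor activation by the natural agonist.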
In assay [11] the target is T1, High affinity choline transporter 1 (Homo sapiens, UniProt Q9GZV3).
T1 sequence (Q9GZV3 whole entry): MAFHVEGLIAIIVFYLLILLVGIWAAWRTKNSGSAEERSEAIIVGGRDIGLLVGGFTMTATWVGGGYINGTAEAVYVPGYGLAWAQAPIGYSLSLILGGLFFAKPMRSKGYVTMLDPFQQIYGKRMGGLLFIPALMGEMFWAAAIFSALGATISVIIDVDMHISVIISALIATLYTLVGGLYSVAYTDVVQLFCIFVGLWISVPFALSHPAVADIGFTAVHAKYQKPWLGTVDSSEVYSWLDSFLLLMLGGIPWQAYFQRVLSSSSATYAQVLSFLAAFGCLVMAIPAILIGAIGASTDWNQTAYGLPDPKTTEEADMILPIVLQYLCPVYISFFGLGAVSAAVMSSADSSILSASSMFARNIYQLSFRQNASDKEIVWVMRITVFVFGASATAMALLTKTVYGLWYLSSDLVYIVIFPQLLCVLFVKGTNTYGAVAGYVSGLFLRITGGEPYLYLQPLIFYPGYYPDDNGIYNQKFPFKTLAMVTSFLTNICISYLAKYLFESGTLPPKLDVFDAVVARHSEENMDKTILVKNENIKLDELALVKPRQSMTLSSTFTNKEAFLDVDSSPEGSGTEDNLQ
Nature of the assay: CHT inhibitors, dose response, cell-based, 10-point CRC, membrane potential dye (AID 588401).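 Also: membrane potential dye fluorescence of choline-evoked depolarization via CHT.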 The format is functional.

Assay [12] relates to BJ. Nature of the assay: cytotoxicity toward BJ-TERT fibroblasts, dose response, cell-based, RAS-independent, luminescence (AID 1933). The format is functional. Conditions: Homo sapiens.
Assay [13] has as its target T1, High affinity choline transporter 1. Nature of the assay: CHT inhibitors, dose response, cell-based, 5-point CRC, membrane potential dye (AID 504840). It counts as functional.
The nature of assay [14]: inhibitors of firefly luciferase expression or activity, dose response, H4 neuroglioma cells, luminescence (AID 1990). The format is functional, cell-based.
Assay [15] relates to BJ. In words: cells. The format is functional, cell-based. Conditions: Homo sapiens.
Assay [16] in a line: inhibitors of SNCA 5'UTR-driven reporter translation, confirmation, H4 neuroglioma cells, luminescence (AID 1988). It counts as functional, cell-based.
Assay [17] in a line: control 3'UTR Renilla luciferase suppression, dose response, counter-screen for Shn3 inhibitor project, cell-based, Clone20-Shn3RL, cherry-picked (AID 624133). The format is functional.
For assay [18], the target named is T2, Microphthalmia-associated transcription factor (Homo sapiens, UniProt O75030).
T2 sequence (O75030 whole entry): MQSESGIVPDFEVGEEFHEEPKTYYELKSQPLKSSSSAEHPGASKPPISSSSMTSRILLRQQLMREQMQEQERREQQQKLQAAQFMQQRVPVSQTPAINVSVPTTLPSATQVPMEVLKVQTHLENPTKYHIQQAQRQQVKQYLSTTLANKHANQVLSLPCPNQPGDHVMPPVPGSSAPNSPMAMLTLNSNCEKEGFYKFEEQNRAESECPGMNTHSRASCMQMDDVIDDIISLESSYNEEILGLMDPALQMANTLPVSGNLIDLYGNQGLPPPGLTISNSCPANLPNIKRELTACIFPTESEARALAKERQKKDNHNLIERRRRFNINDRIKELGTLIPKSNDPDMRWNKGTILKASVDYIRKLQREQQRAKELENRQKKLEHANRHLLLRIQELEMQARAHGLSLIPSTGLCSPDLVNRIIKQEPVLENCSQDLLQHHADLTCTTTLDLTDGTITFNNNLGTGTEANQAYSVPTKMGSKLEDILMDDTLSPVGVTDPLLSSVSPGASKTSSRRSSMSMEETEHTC
In words: TRPM1 promoter luciferase signal decrease, dose response, MITF inhibitor project, cell-based, SK-MEL-5, cherry-picked, set 3 (AID 493073).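 Also: SK-MEL-5 melanoma cells with luciferase driven by the MITF target TRPM1 promoter.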 The format is functional.

For assay [19], the target named is Sphingosine 1-phosphate receptor 4 (Homo sapiens, UniProt O95977). Nature of the assay: Fluorescence dose response cell-based high throughput screening assay for antagonists of the Sphingosine 1-Phosphate Receptor 4 (S1P4). [Related pubchem assays: 1524 (Confirmation in triplicates.), 1510 (Primary screen.)]. It counts as functional.
In assay [20] the test system is BJ. Nature of the assay: cytotoxicity toward BJ-TERT-LT-ST fibroblasts, dose response, cell-based, RAS-independent, luminescence (AID 1935).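 Also: BJ fibroblasts immortalized with TERT plus LT and ST oncogenes.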 The format is functional. Conditions: Homo sapiens.
In assay [21] the target is G-protein coupled receptor 35 (Homo sapiens, UniProt Q9HC97). Nature of the assay: GPR35 antagonists blocking zaprinast-driven arrestin recruitment, primary screen, imaging, U2OS, beta-arrestin-GFP, zaprinast agonist (AID 2058).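 Also: antagonist potency meaning inhibition of agonist-induced arrestin redistribution.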 The format is functional.
The target of assay [22] is T3, Neuropeptides B/W receptor type 1 (Homo sapiens, UniProt P48145). In words: GPR7 antagonist potency, late-stage follow-up, cell-based, fluorescence, dose response, set 5 (AID 588566). It counts as functional.
In assay [23] the target is T4, Melanin-concentrating hormone receptor 1 (Homo sapiens, UniProt Q99705). In words: Late-stage fluorescence-based counterscreen for antagonists of the G-protein coupled receptor 7 (GPR7): cell-based dose response assay to identify antagonists of the melanin-concentrating hormone receptor 1 (MCHR1) Set 5. It counts as functional.
Assay [24] deals with T4, Melanin-concentrating hormone receptor 1. In words: Late-stage fluorescence-based counterscreen for antagonists of the G-protein coupled receptor 7 (GPR7): cell-based dose response assay to identify antagonists of the melanin-concentrating hormone receptor 1 (MCHR1) Set 6. The format is functional.
The target in assay [25] is T3, Neuropeptides B/W receptor type 1. In words: GPR7 antagonist potency, late-stage follow-up, cell-based, fluorescence, dose response, set 6 (AID 588583). It counts as functional.

Molecules are shown by their SMILES. Activity calls are given as the source filed them. Some results are limits rather than exact numbers.

Our source for the AC50, EC50 and IC50 values is ChEMBL document CHEMBL1201862, “PubChem BioAssay data set” (2004).

T3 sequence (P48145 whole entry): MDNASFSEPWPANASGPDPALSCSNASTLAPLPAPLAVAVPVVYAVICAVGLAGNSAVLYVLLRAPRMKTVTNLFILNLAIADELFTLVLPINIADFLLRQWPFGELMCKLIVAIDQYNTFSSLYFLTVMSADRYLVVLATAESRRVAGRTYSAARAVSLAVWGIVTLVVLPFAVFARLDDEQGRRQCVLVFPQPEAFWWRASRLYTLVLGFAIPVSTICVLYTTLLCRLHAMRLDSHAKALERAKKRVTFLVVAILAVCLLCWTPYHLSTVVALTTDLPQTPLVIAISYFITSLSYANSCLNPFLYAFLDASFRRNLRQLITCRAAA
T4 sequence (Q99705 whole entry): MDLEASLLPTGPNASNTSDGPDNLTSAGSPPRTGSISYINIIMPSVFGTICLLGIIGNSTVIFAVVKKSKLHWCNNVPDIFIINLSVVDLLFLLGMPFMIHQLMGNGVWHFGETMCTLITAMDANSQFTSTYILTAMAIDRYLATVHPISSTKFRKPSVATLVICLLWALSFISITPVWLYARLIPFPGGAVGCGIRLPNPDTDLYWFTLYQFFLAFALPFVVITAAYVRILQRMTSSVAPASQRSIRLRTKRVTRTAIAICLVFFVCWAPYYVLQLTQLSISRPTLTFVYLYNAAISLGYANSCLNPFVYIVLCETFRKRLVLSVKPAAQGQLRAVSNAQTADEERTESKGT
Chain of Sphingosine 1-phosphate receptor 1 (P21453 whole entry): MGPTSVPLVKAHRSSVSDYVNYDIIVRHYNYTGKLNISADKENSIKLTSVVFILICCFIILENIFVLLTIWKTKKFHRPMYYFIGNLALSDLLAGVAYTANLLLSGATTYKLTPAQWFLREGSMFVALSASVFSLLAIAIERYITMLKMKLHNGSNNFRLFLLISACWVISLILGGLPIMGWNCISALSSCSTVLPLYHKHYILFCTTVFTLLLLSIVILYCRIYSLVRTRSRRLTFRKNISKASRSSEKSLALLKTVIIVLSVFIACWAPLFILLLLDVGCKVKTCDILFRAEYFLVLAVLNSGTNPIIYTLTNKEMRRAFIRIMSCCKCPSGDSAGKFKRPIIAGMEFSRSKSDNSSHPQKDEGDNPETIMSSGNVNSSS
Chain of G-protein coupled receptor 55 (Q9Y2T6 whole entry): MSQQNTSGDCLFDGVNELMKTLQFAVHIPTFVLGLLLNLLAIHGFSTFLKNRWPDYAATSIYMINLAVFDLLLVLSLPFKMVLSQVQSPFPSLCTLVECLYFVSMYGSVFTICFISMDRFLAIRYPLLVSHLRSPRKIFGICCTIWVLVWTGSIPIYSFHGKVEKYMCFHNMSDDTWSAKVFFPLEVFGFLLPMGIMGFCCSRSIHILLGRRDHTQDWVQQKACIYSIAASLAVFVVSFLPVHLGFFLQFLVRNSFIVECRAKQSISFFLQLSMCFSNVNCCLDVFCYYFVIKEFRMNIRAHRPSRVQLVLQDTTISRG
Chain of Sphingosine 1-phosphate receptor 4 (O95977 whole entry): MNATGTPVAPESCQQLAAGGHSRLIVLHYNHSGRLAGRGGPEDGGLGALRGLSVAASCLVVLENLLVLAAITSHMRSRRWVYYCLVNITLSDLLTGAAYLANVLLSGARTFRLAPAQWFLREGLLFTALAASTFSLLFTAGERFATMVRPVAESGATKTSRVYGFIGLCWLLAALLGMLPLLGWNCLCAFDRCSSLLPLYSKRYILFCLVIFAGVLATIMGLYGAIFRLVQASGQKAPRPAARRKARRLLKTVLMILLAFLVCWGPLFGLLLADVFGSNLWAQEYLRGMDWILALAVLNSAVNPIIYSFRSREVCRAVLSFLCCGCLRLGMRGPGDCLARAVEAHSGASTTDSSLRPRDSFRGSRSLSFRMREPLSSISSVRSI
Chain of G-protein coupled receptor 35 (Q9HC97 whole entry): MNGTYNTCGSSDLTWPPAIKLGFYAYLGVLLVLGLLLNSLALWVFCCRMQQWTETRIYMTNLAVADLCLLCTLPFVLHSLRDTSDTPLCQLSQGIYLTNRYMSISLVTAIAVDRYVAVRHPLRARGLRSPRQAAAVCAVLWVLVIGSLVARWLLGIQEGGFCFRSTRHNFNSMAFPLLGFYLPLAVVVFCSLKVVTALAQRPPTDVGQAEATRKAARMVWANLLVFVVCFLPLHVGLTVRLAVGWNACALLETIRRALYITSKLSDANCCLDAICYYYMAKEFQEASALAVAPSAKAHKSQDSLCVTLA

A word on the AC50: it is the concentration giving half of the maximal activity seen. Broadly, the EC50 is the midpoint of the concentration-response curve. By IC50 is commonly meant the concentration that inhibits the measured activity by half. For `CC1=CC2/C=C(\C)CCC(O)C(O)/C=C/C(=O)C23C(=O)NC(CC(C)C)C3C1C` (stereo not given), the half-maximal activity concentration (AC50) in assay [1] is 8.15 µM (active); in assay [4] it was 6.6 µM (active); in [5], 10.4 µM (active); in [7], 5.29 µM (active); in [17], 6.91 µM (active); in assay [18], 6.58 µM (active). Further, the EC50 is 4.94 µM (inconclusive) in assay [2]; 4.73 µM (active) in assay [3]; 4.09 µM (active) in assay [6]; 8.86 µM (active) in [8]; > 32 µM (inactive) in assay [9]; 4.94 µM (active) in [12]. Besides, the EC50 in assay [14] is > 120 µM (not active); in assay [15], 6.51 µM (active); in assay [16], 9.67 µM (active); in assay [20], 4.8 µM (inconclusive). The IC50 in assay [10] is 17.6 µM (not active); in [11] it was 3.16 µM (active); in assay [13], 4.38 µM (active); in assay [19], 0.648 µM (active); in [21], 3.06 µM (active).

`CCOC(=O)C(c1ccccn1)c1c(Cl)cnn(Cc2cccc3ccccc23)c1=O` (stereo not given): the IC50 was > 20 µM (inactive) in assay [22] and 17.6 µM (inactive) in assay [23].

Turning to `N#CC(Cc1ccccc1)c1c(Cl)cnn(Cc2cccc3ccccc23)c1=O` (stereo not given), the IC50 in [24] and in assay [25] was ~2.06 µM (active) each time.
